Laboratory results from patent US5137897A, “2-substituted 4-(3-alkyl-5-tert.-butyl-4-hydroxyphenyl) thiazoles, processes for their preparation, pharmaceuticals containing them and their use” (Hoechst Aktiengesllschaft, priority 1989, dated 1992).
Read-outs that look alike come from different tables or passages of the source. Blank lines part the entries; values can stand above or below the compound they belong to.

What was measured:
[1] = tested on: Adjuvant arthritis (paw volume increase) in rats; experiment: Adjuvant arthritis (method of Pearson), antiinflammatory action on the 5th day; assay type: in vivo, rat (male, Wistar-Lewis strain); details: Rattus norvegicus, 120 h; for inhibition in vivo at 50 mg/kg: po, 50 mg/kg p.o. once daily, 1st to 5th day, vs untreated control, read-out: Adjuvant arthritis (% inhibition at 50 mg/kg orally); for ED50: adjuvant arthritis, oral, determined graphically from dose-response curve
Method: The testing of the compounds of the formula I according to the invention for antiinflammatory action, influence on immunopathological processes, oxygen free radicaldeactivating properties and influence on arachidonic acid metabolism was carried out in the animal models and bioassays described in the following.
1. Adjuvant arthritis for influencing the antiinflammatory action (Table 2)
(§1) The investigations were carried out by the method of Pearson (Arthrit. Rheum. 1959, 2, 44). Male rats of a Wistar-Lewis strain having a body weight between 130 and 200 g were used as experimental animals. The compounds to be tested were administered orally (p. o.) once daily from the 1st to the 5th experimental day in doses of 50 mg per kg of body weight. The animals of one control group received only the vehicle. Each preparation group and the control group comprised 8 animals. The percentage reduction of the paw volume increase compared to that of the untreated control group was used as the criterion of action. The ED50 values were determined graphically from the dose-response curve.
(§2) 4-(3,5-Di-tert.-butyl-4-hydroxyphenyl)-2-methylthiazole i.e. the compound of the formula [drawing 26] according to US-A-4,535,165 mentioned at the beginning, was additionally included in this and the investigation below as a comparison preparation.

[2] = tested on: Adjuvant arthritis (Perper modification; paw volume) in rats; experiment: Adjuvant arthritis (Perper modification), paw volume on the 21st day; assay type: in vivo, rat (male, Wistar-Lewis strain); details: for inhibition in vivo at 50 mg/kg: Rattus norvegicus, po, 504 h, 50 mg/kg/day, 1st to 12th day
Method: as §1, §2
a) Adjuvant arthritis (Perper modification)
The animals were only treated from the 1st to the 12th experimental day in the experimental arrangement described in item 1. After a treatment-free interval of 9 days, determination of the paw volume of the left and right hind paw was carried out on the 21st day (compare Table 3).

[3] = Free radical scavenger properties (reaction with DPPH); details: reaction with DPPH at 20° C.; determined graphically
Method: a) Free radical scavenger properties The testing in this test, which allows conclusions on the antioxidative potential of a substance, was carried out according to Smith et al., Biochem, Pharmacol. 1987. 36, 1456. In this test, the reaction of the compounds according to the invention with the stable free radical 1,1-diphenyl-2-picrylhydrazyl (DPPH) is monitored optically at 20° C. The rate constant K and reaction orders n in Table 5 were determined graphically in the customary manner.

[4] = tested on: Arthus reaction (paw volume increase) in rats; experiment: Reverse passive Arthus reaction; assay type: in vivo, rat (male Sprague-Dawley)
Method: b) Reverse passive Arthus reaction
Male Sprague-Dawley rats having a body weight between 100 and 120 g. which had been divided into groups of 8 animals in each case, were used as experimental animals. The animals received a subplantar injection in the left hind paw of 0.5 mg of immunoglobulin in 0.1 ml of a sodium chloride solution 1 hour after oral administration of the test substance. After 4 hours, the Arthus reaction was measured, the percentage change in the paw volume increase compared to that of the control group treated only with vehicle being used as a measuring parameter for the action.

[5] = tested on: 5-HETE formation in human neutrophils; experiment: Influence on 5-HETE formation in human neutrophils; assay type: cell-based; details: Neutrophil
Method: (§3) Moreover, the substances according to the invention were also characterized in cellular leukocyte systems in vitro as inhibitors of arachidonic acid metabolites. To detect the lipoxygenase metabolites, human neutrophils stimlated by calcium ionophore A 23 187 (70 mcmol/1) were incubated with ^14 C-arachidonic acid (81 mcmol/1) and the principal metabolites formed after 15 minutes at 37° C., such as 5-hydroxyeicosatetraenoic acid (5-HETE) and the more strongly proinflammatory leukotriene B4 (LTB4) were determined quantitatively (Tab. 6) with the aid of a radio monitor after separation by HPLC. The influence on the proinflammatory arachiconic acid metabolites thromboxane and LTB4 in cultures prepared from rat mast cells was determined in a corresponding manner (Tab. 7).

[6] = tested on: LTB4 formation in human neutrophils; experiment: Influence on LTB4 formation in human neutrophils; assay type: cell-based; details: Neutrophil
Method: as §3

lipoxygenase = molecular target: T1, lipoxygenase (Glycine max, UniProt P08170); experiment: Lipoxygenase (enzyme) inhibition in vitro; assay type: biochemical; details: at 50 μM
T1 construct: purchased Sigma, Deisenhofen, Germany L7127
T1 sequence (P08170 1-839): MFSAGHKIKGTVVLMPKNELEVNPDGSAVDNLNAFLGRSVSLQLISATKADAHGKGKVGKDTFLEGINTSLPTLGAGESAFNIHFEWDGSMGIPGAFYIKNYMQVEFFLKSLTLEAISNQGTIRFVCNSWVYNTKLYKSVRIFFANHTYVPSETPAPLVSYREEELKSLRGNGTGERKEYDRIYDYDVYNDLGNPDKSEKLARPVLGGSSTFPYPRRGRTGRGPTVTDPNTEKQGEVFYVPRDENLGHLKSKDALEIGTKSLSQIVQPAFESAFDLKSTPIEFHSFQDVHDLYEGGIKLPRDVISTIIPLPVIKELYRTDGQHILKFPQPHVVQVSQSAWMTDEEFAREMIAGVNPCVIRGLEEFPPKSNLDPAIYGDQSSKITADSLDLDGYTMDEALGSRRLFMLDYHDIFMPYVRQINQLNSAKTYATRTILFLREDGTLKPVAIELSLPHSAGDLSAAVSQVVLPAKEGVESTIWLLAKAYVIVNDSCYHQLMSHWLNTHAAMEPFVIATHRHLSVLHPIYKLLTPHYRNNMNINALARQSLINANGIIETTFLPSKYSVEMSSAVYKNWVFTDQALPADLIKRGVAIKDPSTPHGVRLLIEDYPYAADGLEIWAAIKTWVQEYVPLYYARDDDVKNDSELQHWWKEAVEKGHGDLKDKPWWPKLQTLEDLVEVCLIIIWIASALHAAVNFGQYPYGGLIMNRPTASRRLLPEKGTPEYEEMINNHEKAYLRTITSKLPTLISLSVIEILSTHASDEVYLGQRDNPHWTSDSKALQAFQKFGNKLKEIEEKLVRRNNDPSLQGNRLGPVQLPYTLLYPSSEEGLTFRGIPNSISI
Method: The inhibitory action of the compounds according to the invention is measured on the in vitro arachidonic acid degradation catalyzed by cyclooxycenase and lipoxycenase with the aid of the test systems described in Weithmann and Alpermann, Arzneim.-Forsch. 1985, 35, 947: The cyclooxygenase-catalyzed synthesis of prostaglandins from arachidonic acid is measured in the microsomal cyclooxygenase system (fraction from sheep seminal vesicles, Paesel, Frankfurt, Germany). The coenzyme is adrenaline, whose conversion to adrenochrome is monitored by spectrophotometry at 492 nm. Cis-9-cis-12-linoleic acid is incubated with lipoxygenase (L7127, Sigma, Deisenhofen, Germany) in the lipoxygenase system in vitro and the formation of conjugated double bonds taking place during the oxygenation reaction is monitored optically at 234 nm.
The inhibitor actions, or the inhibitor concentrations necessary for a 50 % inhibition of enzyme activity (IC50 values), have been determined for the following examples according to the invention: […]

[7] = tested on: Adjuvant arthritis (Perper modification; paw volume) in rats; experiment: Adjuvant arthritis (Perper modification), paw volume on the 21st day; assay type: in vivo, rat (male, Wistar-Lewis strain); details: Rattus norvegicus, po, 504 h, 1st to 12th day; for inhibition in vivo at 5 mg/kg: 5 mg/kg/day; for inhibition in vivo at 10 mg/kg: 10 mg/kg/day
[8] = read-out: % inhibition on the 21st day, Left paw
[9] = read-out: % inhibition on the 21st day, Right paw

Compound: Cc1nc(-c2cc(C(C)(C)C)c(O)c(C(C)(C)C)c2)cs1 [Comparison preparation, 4-(3,5-Di-tert.-butyl-4-hydroxyphenyl)-2-methylthiazole, reference compound]
inhibition in vivo at 50 mg/kg [1]: 67% | inhibition in vivo at 50 mg/kg [2, 8]: 12% | inhibition in vivo at 50 mg/kg [2, 9]: 21% | action in the Perper modification of adjuvant arthritis (in words) ([2]; comparison with preparation from US-A-4,535,165): only a suggested action

Compound: CCOC(=O)CCc1nc(-c2cc(C(C)(C)C)c(O)c(C(C)(C)C)c2)cs1 [Example 1, Ethyl 3-[4-(3,5-di-tert.-butyl-4-hydroxyphenyl)thiazol-2-yl]propionate]
ED50 [1]: 5.7 mg/kg | inhibition in vivo at 50 mg/kg [1]: 73% | reaction order n [3]: < 1 | inhibition in vivo at 50 mg/kg [2, 8]: 45% | inhibition in vivo at 50 mg/kg [2, 9]: 49%

Compound: CCOC(=O)C=Cc1nc(-c2cc(C(C)(C)C)c(O)c(C(C)(C)C)c2)cs1 [Example 2, Ethyl 3-[4-(3,5-di-tert.-butyl-4-hydroxyphenyl)thiazol-2-yl]acrylate]
reaction order n [3]: 1

Compound: CC(C)(C)c1cc(-c2csc(C=C3CCNC3=O)n2)cc(C(C)(C)C)c1O [Example 4, 3-[4-(3,5-Di-tert.-butyl-4-hydroxyphenyl)thiazol-2-ylmethylidene]pyrrolidin-2-one]
inhibition in vivo at 50 mg/kg [1]: 54%

Compound: CC(C)(C)c1cc(-c2csc(C=NOCC(=O)O)n2)cc(C(C)(C)C)c1O [Example 5]
inhibition in vivo at 50 mg/kg [1]: 51% | % inhibition (Arthus reaction) ([4]; 60 mg/kg orally): 38% | inhibition in vivo at 50 mg/kg [2, 8]: 20% | inhibition in vivo at 50 mg/kg [2, 9]: 42%

Compound: CC(C)(OCc1nc(-c2cc(C(C)(C)C)c(O)c(C(C)(C)C)c2)cs1)C(=O)O [Example 6]
inhibition in vivo at 50 mg/kg [1]: 70%

Compound: CC(C)(C)c1cc(-c2csc(CC(=O)O)n2)cc(C(C)(C)C)c1O [Example 9]
activity at 0.1 µM ([5]; 0.1 μM, n = 6, read-out: 5-HETE formation, Residual activity (%)): 91.5 ± 10% | activity at 1 µM ([5]; 1 μM, n = 6, read-out: 5-HETE formation, Residual activity (%)): 80 ± 8% | activity at 10 µM ([5]; 10 μM, n = 6, read-out: 5-HETE formation, Residual activity (%)): 75 ± 13% | activity at 100 µM ([5]; 100 μM, n = 9, read-out: 5-HETE formation, Residual activity (%)): 21 ± 8% | reaction order n [3]: < 1 | activity at 0.1 µM ([6]; 0.1 μM, n = 6, read-out: LTB4 formation, Residual activity (%)): 70 ± 12% | activity at 1 µM ([6]; 1 μM, n = 6, read-out: LTB4 formation, Residual activity (%)): 79 ± 11% | activity at 10 µM ([6]; 10 μM, n = 6, read-out: LTB4 formation, Residual activity (%)): 73 ± 12% | activity at 100 µM ([6]; 100 μM, n = 9, read-out: LTB4 formation, Residual activity (%)): 20.5 ± 11%

Compound: CC(C)(C)c1cc(-c2csc(CCCC(=O)O)n2)cc(C(C)(C)C)c1O [Example 10]
inhibition in vivo at 50 mg/kg [1]: 71%

Compound: CC(C)(C)c1cc(-c2csc(C=CC(=O)O)n2)cc(C(C)(C)C)c1O [Example 11]
ED50 [1]: 12.6 mg/kg | inhibition in vivo at 50 mg/kg [1]: 63% | reaction order n [3]: 1 | inhibition in vivo at 50 mg/kg [2, 8]: 44% | inhibition in vivo at 50 mg/kg [2, 9]: 51%

inhibition at 50 µM (lipoxygenase): 73%
Compound: COC(=O)C=Cc1nc(-c2cc(C(C)(C)C)c(O)c(C(C)(C)C)c2)cs1 [Example 12]
reaction order n [3]: 1

Compound: COC(=O)CCc1nc(-c2cc(C(C)(C)C)c(O)c(C(C)(C)C)c2)cs1 [Example 13]
inhibition in vivo at 50 mg/kg [1]: 74% | reaction order n [3]: 1 | inhibition in vivo at 50 mg/kg [2, 8]: 44% | inhibition in vivo at 50 mg/kg [2, 9]: 31%

Compound: CCOC(=O)CCc1nc(-c2cc(C(C)(C)C)c(O)c(C(C)(C)C)c2)c(C)s1 [Example 14]
inhibition in vivo at 50 mg/kg [1]: 61% | inhibition in vivo at 50 mg/kg [2, 8]: 22% | inhibition in vivo at 50 mg/kg [2, 9]: 49%

Compound: Cc1cc(-c2csc(CCC(=O)O)n2)cc(C(C)(C)C)c1O [Example 17]
ED50 [1]: 7.5 mg/kg | inhibition in vivo at 50 mg/kg [1]: 67% | inhibition in vivo at 50 mg/kg [2, 8]: 60% | inhibition in vivo at 50 mg/kg [2, 9]: 38%

Compound: CC(C)(C)c1cc(-c2csc(CSCC(=O)O)n2)cc(C(C)(C)C)c1O [Example 18]
% inhibition (Arthus reaction) ([4]; 100 mg/kg orally): 50% | reaction order n [3]: 1

Compound: CN(O)C(=O)CCc1nc(-c2cc(C(C)(C)C)c(O)c(C(C)(C)C)c2)cs1 [Example 19]
ED50 [1]: 2.5 mg/kg | inhibition in vivo at 50 mg/kg [1]: 75% | % inhibition (Arthus reaction) ([4]; 50 mg/kg orally): 45% | reaction order n [3]: < 1 | inhibition in vivo at 5 mg/kg [7, 8]: 59% | inhibition in vivo at 5 mg/kg [7, 9]: 70% | inhibition in vivo at 10 mg/kg [7, 8]: 72% | inhibition in vivo at 10 mg/kg [7, 9]: 85%

Compound: CONC(=O)CCc1nc(-c2cc(C(C)(C)C)c(O)c(C(C)(C)C)c2)cs1 [Example 20]
inhibition in vivo at 50 mg/kg [1]: 66% | inhibition in vivo at 50 mg/kg [2, 8]: 50% | inhibition in vivo at 50 mg/kg [2, 9]: 35%

Compound: CC(C)(C)c1cc(-c2csc(CCC(=O)Nc3nn[nH]n3)n2)cc(C(C)(C)C)c1O [Example 21]
inhibition in vivo at 50 mg/kg [1]: 65% | % inhibition (Arthus reaction) ([4]; 50 mg/kg orally): 48% | reaction order n [3]: 1 | inhibition in vivo at 50 mg/kg [2, 8]: 42% | inhibition in vivo at 50 mg/kg [2, 9]: 54%
